In ChEMBL document CHEMBL4041510, “Design, synthesis, and biological evaluation of structurally modified isoindolinone and quinazolinone derivatives as hedgehog pathway inhibitors” (Eur J Med Chem, 2017):
Calls of active or inactive are those of the source. The rule behind the calls is not given here.

Columns and labels:
[1] = Inhibition of hedgehog signaling pathway in mouse NIH/3T3 cells measured after 24 hrs by Gli-dual luciferase reporter gene assay; type: cell-based; conditions: NIH3T3, 24 h
Mus musculus [2] = organism: Mus musculus; assay: Inhibition of hedgehog signaling pathway in mouse NIH/3T3 cells assessed as inhibition of hedgehog-induced Smo-EGFP ciliary translocation by DAPI staining based confocal microscopic analysis; type: cell-based
Mus musculus [3] = organism: Mus musculus; assay: Inhibition of hedgehog signaling pathway expressed in mouse NIH/3T3 cells assessed as inhibition of hedgehog-induced Gli-2 accumulation at tip of primary cilia by DAPI staining based confocal microscopic analysis; type: cell-based
[4] = Inhibition of hedgehog signaling pathway in mouse NIH/3T3 cells expressing wild type Smo assessed as reduction in Gli mRNA expression by RT-PCR method; type: cell-based; conditions: NIH3T3
[5] = Inhibition of hedgehog signaling pathway in mouse NIH/3T3 cells harboring Smo D477H mutant assessed as reduction in Gli mRNA expression by RT-PCR method; type: cell-based; conditions: NIH3T3
Mus musculus [6] = organism: Mus musculus; assay: Selectivity ratio of IC50 for hedgehog signaling pathway in mouse NIH/3T3 cells harboring Smo D477H mutant to IC50 for hedgehog signaling pathway in mouse NIH/3T3 cells expressing wild type Smo; type: cell-based
NIH3T3 = assay: Cytotoxicity against mouse NIH/3T3 cells assessed as cell viability by MTS assay; type: cell-based
Mus musculus [7] = organism: Mus musculus; assay: Inhibition of hedgehog signaling pathway in Ptch deficient MEF assessed as downregulation of Gli-1 expression by Immunoblot analysis
[8] = Metabolic stability in human liver microsomes assessed as compound remaining at 1 uM preincubated for 5 mins followed by NADPH addition measured after 30 mins by LC-ESI/MS/MS analysis relative to control; type: ADME, microsome; conditions: read-out: Stability
[9] = Metabolic stability in human liver microsomes assessed as compound remaining at 1 uM in absence of NADPH incubated for 5 mins by LC-ESI/MS/MS analysis relative to control; type: ADME, microsome; conditions: read-out: Stability
[10] = Metabolic stability in human liver microsomes assessed as compound remaining at 1 uM preincubated for 5 mins followed by UDPGA addition measured after 30 mins by LC-ESI/MS/MS analysis relative to control; type: ADME, microsome; conditions: read-out: Stability
[11] = Metabolic stability in human liver microsomes assessed as compound remaining at 1 uM in absence of UDPGA incubated for 5 mins by LC-ESI/MS/MS analysis relative to control; type: ADME, microsome; conditions: read-out: Stability

SMILES	IC50 [1]	Activity (NIH3T3)	other results
CS(=O)(=O)c1ccc(C(=O)Nc2ccc(Cl)c(-c3ccccn3)c2)c(Cl)c1 [VISMODEGIB]	5 nM	–	inhibition (Mus musculus [2]): Active; inhibition (Mus musculus [3]): Active; IC50 [4]: 14.4 nM; IC50 [5]: 1200 nM; Ratio IC50 (Mus musculus [6]): 82.7
C[C@@H]1CN(c2ccc(N3Cc4c(cccc4-c4ccc(OC(F)(F)F)cc4)C3=O)cn2)C[C@H](C)O1	1800 nM	> 20 µM	–
O=c1c2cccc(-c3ccc(OC(F)(F)F)cc3)c2ncn1CCCn1ccnc1	5280 nM	> 20 µM	–
C[C@@H]1CN(c2ccc(-n3cnc4c(Cl)cccc4c3=O)cn2)C[C@H](C)O1	7490 nM	> 20 µM	–
O=c1c2cccc(Cl)c2ncn1-c1ccc(F)cc1	269 nM	> 20 µM	–
C[C@@H]1CN(c2cc(-n3cnc4c(Cl)cccc4c3=O)ncn2)C[C@H](C)O1	1240 nM	> 20 µM	–
O=C1CC2(CCCC2)CC(=O)N1CCCCN1CCN(c2ncccn2)CC1 [BUSPIRONE]	–	–	remaining at 0.5 h, 1 µM [8]: 5.17%; remaining at 5 min, 1 µM [9]: 96.7%
C[C@@H]1CN(c2cc(N3Cc4c(cccc4-c4ccc(OC(F)(F)F)cc4)C3=O)ncn2)C[C@H](C)O1	1140 nM	> 20 µM	–
C[C@@H]1CN(c2ccc(N3Cc4c(cccc4-c4cccnc4)C3=O)cn2)C[C@H](C)O1	7690 nM	> 20 µM	–
C[C@@H]1CN(c2ccc(N3Cc4c(cccc4-c4ccc(F)cc4F)C3=O)cn2)C[C@H](C)O1	1710 nM	> 20 µM	–
Cc1cc(=O)oc2cc(O)ccc12 [HYMECROMONE]	–	–	remaining at 0.5 h, 1 µM [10]: 0.46%; remaining at 5 min, 1 µM [11]: 92.2%
Cc1c(C(=O)Nc2ccc(N3C[C@@H](C)O[C@@H](C)C3)nc2)cccc1-c1ccc(OC(F)(F)F)cc1 [SONIDEGIB]	6 nM	> 20 µM	remaining at 0.5 h, 1 µM [8]: 68%; remaining at 5 min, 1 µM [9]: 99.7%; remaining at 0.5 h, 1 µM [10]: 88.4%; remaining at 5 min, 1 µM [11]: 89.5%; inhibition (Mus musculus [2]): Active; inhibition (Mus musculus [3]): Active; IC50 [4]: 4.4 nM; IC50 [5]: 22.7 nM; Ratio IC50 (Mus musculus [6]): 5.16

Now from value to molecule, other results behind:

IC50 [1]	SMILES	Activity (NIH3T3)	other results
38 nM	C[C@@H]1CN(c2ccc(-n3cnc4c(-c5ccccc5)cccc4c3=O)cn2)C[C@H](C)O1	> 20 µM	inhibition (Mus musculus [7]): Active; remaining at 0.5 h, 1 µM [8]: 68.2%; remaining at 5 min, 1 µM [9]: 83.7%; remaining at 0.5 h, 1 µM [10]: 91%; remaining at 5 min, 1 µM [11]: 93.1%; inhibition (Mus musculus [2]): Active; inhibition (Mus musculus [3]): Active; IC50 [4]: 257 nM; IC50 [5]: 91.1 nM; Ratio IC50 (Mus musculus [6]): 0.355
196 nM	COc1ccc(-c2cccc3c(=O)n(-c4ccc(N5C[C@@H](C)O[C@@H](C)C5)nc4)cnc23)cc1	> 20 µM	–
159 nM	C[C@@H]1CN(c2ccc(-n3cnc4c(-c5ccc(OC(F)(F)F)cc5)cccc4c3=O)cn2)C[C@H](C)O1	> 20 µM	–
196 nM	C[C@@H]1CN(c2ccc(-n3cnc4c(-c5ccc(OC(F)(F)F)cc5)cccc4c3=O)nc2)C[C@H](C)O1	> 20 µM	–
439 nM	C[C@@H]1CN(c2ccc(-n3cnc4c(-c5cccc6ccccc56)cccc4c3=O)cn2)C[C@H](C)O1	> 20 µM	–
15300 nM	O=c1c2cccc(Cl)c2ncn1-c1ccc(N2CCOCC2)nc1	> 20 µM	–
5410 nM	O=c1c2cccc(-c3ccc(OC(F)(F)F)cc3)c2ncn1-c1ccc(N2CCOCC2)nc1	> 20 µM	–
847 nM	CC1CCN(c2ccc(-n3cnc4c(-c5ccc(OC(F)(F)F)cc5)cccc4c3=O)cn2)CC1	> 20 µM	–
> 20000 nM	O=c1c2cccc(Cl)c2ncn1-c1ccc(N2CCOCC2)cc1	> 20 µM	–
433 nM	COc1cccc(-c2cccc3c(=O)n(-c4ccc(N5CCOCC5)cc4)cnc23)c1	> 20 µM	–
4520 nM	O=c1c2cccc(-c3ccc(OC(F)(F)F)cc3)c2ncn1-c1ccc(N2CCOCC2)cc1	> 20 µM	–
305 nM	Cc1ccc(-c2cccc3c(=O)n(-c4ccc(N5C[C@@H](C)O[C@@H](C)C5)nc4)cnc23)cc1	> 20 µM	–
6600 nM	O=c1c2cccc(-c3ccc(OC(F)(F)F)cc3)c2ncn1CCN1CCOCC1	> 20 µM	–
118 nM	C[C@@H]1CN(c2ccc(-n3cnc4c(-c5ccc(F)cc5)cccc4c3=O)cn2)C[C@H](C)O1	> 20 µM	inhibition (Mus musculus [7]): Active; remaining at 0.5 h, 1 µM [8]: 76.3%; remaining at 5 min, 1 µM [9]: 91.3%; remaining at 0.5 h, 1 µM [10]: 83.5%; remaining at 5 min, 1 µM [11]: 83.2%; inhibition (Mus musculus [2]): Active; inhibition (Mus musculus [3]): Active; IC50 [4]: 114 nM; IC50 [5]: 246 nM; Ratio IC50 (Mus musculus [6]): 2.16
132 nM	O=c1c2cccc(-c3ccccc3)c2ncn1-c1ccc(N2CCOCC2)cc1	> 20 µM	–
7700 nM	CC1CCN(c2cc(-n3cnc4c(-c5ccc(OC(F)(F)F)cc5)cccc4c3=O)ncn2)CC1	> 20 µM	–
44200 nM	C[C@@H]1CN(c2cc(-n3cnc4c(-c5ccc(OC(F)(F)F)cc5)cccc4c3=O)ncn2)C[C@H](C)O1	> 20 µM	–
430 nM	C[C@@H]1CN(c2ccc(-n3cnc4c(-c5ccc(S(C)(=O)=O)cc5)cccc4c3=O)cn2)C[C@H](C)O1	> 20 µM	–
